Assay results: patent publication US20230111310A1, “CARBOXYLIC ACID DERIVATIVE-SUBSTITUTED IMINO ARYL COMPOUND, PREPARATION METHOD THEREFOR, HERBICIDAL COMPOSITION AND USE THEREOF” (Qingdao Kingagroot Chemical Compound Co., Ltd., priority 2020, published 2023)

Tested on: Echinochloa crusgalli
Experiment: Weeding effect in post-emergence stage
Assay type: in vivo
Settings: Dose 15 g/ha; level of fresh weight growth control rate
How it was run: (§1)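 Post-emergence spray tower; 2-3 leaf plants (2 wk after sowing, soil pots, greenhouse). Formulation: acetone, Tween 80, methyl oleate EC 1.5 liter/ha as synergist, water. Rates 500–7.5 g/ha. Growth control rate read at 3 wk; n=3, averaged.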

SMILES | Weeding effect in post-emergence stage, Echinochloa crusgalli
CC(O/N=C/c1cc(-n2c(=O)n(C)c(=S)n(C)c2=O)c(F)cc1Cl)C(=O)OCc1ccncc1 (stereo not drawn) [Compound 60] | 5 (Level 5: growth control rate is above 85%)
CCC(O/N=C/c1cc(-n2c(=O)n(C)c(=S)n(C)c2=O)c(F)cc1Cl)C(=O)OC (stereo not drawn) [Compound 72] | 5 (Level 5: growth control rate is above 85%)
CCOC(=O)C(O/N=C/c1cc(-n2c(=O)n(C)c(=S)n(C)c2=O)c(F)cc1Cl)C1CC1 (stereo not drawn) [Compound 76] | 5 (Level 5: growth control rate is above 85%)
COCC(O/N=C/c1cc(-n2c(=O)n(C)c(=S)n(C)c2=O)c(F)cc1Cl)C(=O)OC (stereo not drawn) [Compound 80] | 5 (Level 5: growth control rate is above 85%)
COC(=O)C(C)O/N=C/c1cc(-n2c(=O)n(C)c(=S)n(C)c2=O)c(F)cc1Br (stereo not drawn) [Compound 83] | 5 (Level 5: growth control rate is above 85%)
CCOC(=O)C(C)O/N=C/c1cc(-n2c(=O)n(C)c(=S)n(C)c2=O)c(F)cc1Br (stereo not drawn) [Compound 84] | 5 (Level 5: growth control rate is above 85%)
COC(=O)C(C)(C)O/N=C/c1cc(-n2c(=O)n(C)c(=S)n(C)c2=O)c(F)cc1Cl [Compound 189] | 4 (Level 4: growth control rate is greater than or equal to 60% and less than 85%)

Tested on: Eleusine indica
Experiment: Weeding effect in post-emergence stage
Assay type: in vivo
Settings: Dose 15 g/ha; level of fresh weight growth control rate
How it was run: as §1

SMILES | Weeding effect in post-emergence stage, Eleusine indica
CC(O/N=C/c1cc(-n2c(=O)n(C)c(=S)n(C)c2=O)c(F)cc1Cl)C(=O)OCc1ccncc1 (stereo not drawn) [Compound 60] | 5 (Level 5: growth control rate is above 85%)
CCC(O/N=C/c1cc(-n2c(=O)n(C)c(=S)n(C)c2=O)c(F)cc1Cl)C(=O)OC (stereo not drawn) [Compound 72] | 5 (Level 5: growth control rate is above 85%)
CCOC(=O)C(O/N=C/c1cc(-n2c(=O)n(C)c(=S)n(C)c2=O)c(F)cc1Cl)C1CC1 (stereo not drawn) [Compound 76] | 5 (Level 5: growth control rate is above 85%)
COCC(O/N=C/c1cc(-n2c(=O)n(C)c(=S)n(C)c2=O)c(F)cc1Cl)C(=O)OC (stereo not drawn) [Compound 80] | 5 (Level 5: growth control rate is above 85%)
COC(=O)C(C)O/N=C/c1cc(-n2c(=O)n(C)c(=S)n(C)c2=O)c(F)cc1Br (stereo not drawn) [Compound 83] | 5 (Level 5: growth control rate is above 85%)
CCOC(=O)C(C)O/N=C/c1cc(-n2c(=O)n(C)c(=S)n(C)c2=O)c(F)cc1Br (stereo not drawn) [Compound 84] | 5 (Level 5: growth control rate is above 85%)
COC(=O)C(C)(C)O/N=C/c1cc(-n2c(=O)n(C)c(=S)n(C)c2=O)c(F)cc1Cl [Compound 189] | 5 (Level 5: growth control rate is above 85%)

Tested on: Alopecurus japonicus
Experiment: Weeding effect in post-emergence stage
Assay type: in vivo
Settings: Dose 15 g/ha; level of fresh weight growth control rate
How it was run: as §1

SMILES | Weeding effect in post-emergence stage, Alopecurus japonicus
CC(O/N=C/c1cc(-n2c(=O)n(C)c(=S)n(C)c2=O)c(F)cc1Cl)C(=O)OCc1ccncc1 (stereo not drawn) [Compound 60] | 4 (Level 4: growth control rate is greater than or equal to 60% and less than 85%)
CCC(O/N=C/c1cc(-n2c(=O)n(C)c(=S)n(C)c2=O)c(F)cc1Cl)C(=O)OC (stereo not drawn) [Compound 72] | 4 (Level 4: growth control rate is greater than or equal to 60% and less than 85%)
CCOC(=O)C(O/N=C/c1cc(-n2c(=O)n(C)c(=S)n(C)c2=O)c(F)cc1Cl)C1CC1 (stereo not drawn) [Compound 76] | 5 (Level 5: growth control rate is above 85%)
COCC(O/N=C/c1cc(-n2c(=O)n(C)c(=S)n(C)c2=O)c(F)cc1Cl)C(=O)OC (stereo not drawn) [Compound 80] | 5 (Level 5: growth control rate is above 85%)
COC(=O)C(C)O/N=C/c1cc(-n2c(=O)n(C)c(=S)n(C)c2=O)c(F)cc1Br (stereo not drawn) [Compound 83] | 4 (Level 4: growth control rate is greater than or equal to 60% and less than 85%)
CCOC(=O)C(C)O/N=C/c1cc(-n2c(=O)n(C)c(=S)n(C)c2=O)c(F)cc1Br (stereo not drawn) [Compound 84] | 4 (Level 4: growth control rate is greater than or equal to 60% and less than 85%)
COC(=O)C(C)(C)O/N=C/c1cc(-n2c(=O)n(C)c(=S)n(C)c2=O)c(F)cc1Cl [Compound 189] | 4 (Level 4: growth control rate is greater than or equal to 60% and less than 85%)

Tested on: Abutilon theophrasti
Experiment: Weeding effect in post-emergence stage
Assay type: in vivo
Settings: Dose 15 g/ha; level of fresh weight growth control rate
How it was run: as §1

SMILES | Weeding effect in post-emergence stage, Abutilon theophrasti
CC(O/N=C/c1cc(-n2c(=O)n(C)c(=S)n(C)c2=O)c(F)cc1Cl)C(=O)OCc1ccncc1 (stereo not drawn) [Compound 60] | 5 (Level 5: growth control rate is above 85%)
CCC(O/N=C/c1cc(-n2c(=O)n(C)c(=S)n(C)c2=O)c(F)cc1Cl)C(=O)OC (stereo not drawn) [Compound 72] | 5 (Level 5: growth control rate is above 85%)
CCOC(=O)C(O/N=C/c1cc(-n2c(=O)n(C)c(=S)n(C)c2=O)c(F)cc1Cl)C1CC1 (stereo not drawn) [Compound 76] | 5 (Level 5: growth control rate is above 85%)
COCC(O/N=C/c1cc(-n2c(=O)n(C)c(=S)n(C)c2=O)c(F)cc1Cl)C(=O)OC (stereo not drawn) [Compound 80] | 5 (Level 5: growth control rate is above 85%)
COC(=O)C(C)O/N=C/c1cc(-n2c(=O)n(C)c(=S)n(C)c2=O)c(F)cc1Br (stereo not drawn) [Compound 83] | 5 (Level 5: growth control rate is above 85%)
CCOC(=O)C(C)O/N=C/c1cc(-n2c(=O)n(C)c(=S)n(C)c2=O)c(F)cc1Br (stereo not drawn) [Compound 84] | 5 (Level 5: growth control rate is above 85%)
COC(=O)C(C)(C)O/N=C/c1cc(-n2c(=O)n(C)c(=S)n(C)c2=O)c(F)cc1Cl [Compound 189] | 5 (Level 5: growth control rate is above 85%)

Tested on: Setaria viridis
Experiment: Weeding effect in post-emergence stage
Assay type: in vivo
Settings: Dose 15 g/ha; level of fresh weight growth control rate
How it was run: as §1

SMILES | Weeding effect in post-emergence stage, Setaria viridis
CC(O/N=C/c1cc(-n2c(=O)n(C)c(=S)n(C)c2=O)c(F)cc1Cl)C(=O)OCc1ccncc1 (stereo not drawn) [Compound 60] | 5 (Level 5: growth control rate is above 85%)
CCC(O/N=C/c1cc(-n2c(=O)n(C)c(=S)n(C)c2=O)c(F)cc1Cl)C(=O)OC (stereo not drawn) [Compound 72] | 5 (Level 5: growth control rate is above 85%)
CCOC(=O)C(O/N=C/c1cc(-n2c(=O)n(C)c(=S)n(C)c2=O)c(F)cc1Cl)C1CC1 (stereo not drawn) [Compound 76] | 5 (Level 5: growth control rate is above 85%)
COCC(O/N=C/c1cc(-n2c(=O)n(C)c(=S)n(C)c2=O)c(F)cc1Cl)C(=O)OC (stereo not drawn) [Compound 80] | 5 (Level 5: growth control rate is above 85%)
COC(=O)C(C)O/N=C/c1cc(-n2c(=O)n(C)c(=S)n(C)c2=O)c(F)cc1Br (stereo not drawn) [Compound 83] | 5 (Level 5: growth control rate is above 85%)
CCOC(=O)C(C)O/N=C/c1cc(-n2c(=O)n(C)c(=S)n(C)c2=O)c(F)cc1Br (stereo not drawn) [Compound 84] | 5 (Level 5: growth control rate is above 85%)
COC(=O)C(C)(C)O/N=C/c1cc(-n2c(=O)n(C)c(=S)n(C)c2=O)c(F)cc1Cl [Compound 189] | 5 (Level 5: growth control rate is above 85%)

Tested on: Digitaria sanguinalis
Experiment: Weeding effect in post-emergence stage
Assay type: in vivo
Settings: Dose 15 g/ha; level of fresh weight growth control rate
How it was run: as §1

SMILES | Weeding effect in post-emergence stage, Digitaria sanguinalis
CC(O/N=C/c1cc(-n2c(=O)n(C)c(=S)n(C)c2=O)c(F)cc1Cl)C(=O)OCc1ccncc1 (stereo not drawn) [Compound 60] | 5 (Level 5: growth control rate is above 85%)
CCC(O/N=C/c1cc(-n2c(=O)n(C)c(=S)n(C)c2=O)c(F)cc1Cl)C(=O)OC (stereo not drawn) [Compound 72] | 5 (Level 5: growth control rate is above 85%)
CCOC(=O)C(O/N=C/c1cc(-n2c(=O)n(C)c(=S)n(C)c2=O)c(F)cc1Cl)C1CC1 (stereo not drawn) [Compound 76] | 5 (Level 5: growth control rate is above 85%)
COCC(O/N=C/c1cc(-n2c(=O)n(C)c(=S)n(C)c2=O)c(F)cc1Cl)C(=O)OC (stereo not drawn) [Compound 80] | 5 (Level 5: growth control rate is above 85%)
COC(=O)C(C)O/N=C/c1cc(-n2c(=O)n(C)c(=S)n(C)c2=O)c(F)cc1Br (stereo not drawn) [Compound 83] | 4 (Level 4: growth control rate is greater than or equal to 60% and less than 85%)
CCOC(=O)C(C)O/N=C/c1cc(-n2c(=O)n(C)c(=S)n(C)c2=O)c(F)cc1Br (stereo not drawn) [Compound 84] | 4 (Level 4: growth control rate is greater than or equal to 60% and less than 85%)
COC(=O)C(C)(C)O/N=C/c1cc(-n2c(=O)n(C)c(=S)n(C)c2=O)c(F)cc1Cl [Compound 189] | 4 (Level 4: growth control rate is greater than or equal to 60% and less than 85%)
